These are literature values, as cited in PMC3010278 (Journal of medicinal chemistry, 2010).

This data set has as its system QR1. Particulars: in vivo.

Take `C[S+]([O-])CCCCN=C=S` (stereo not shown) [Compound 54, sulforaphane]: the “QR1 induction in rat mammary gland” value is “induce QR1”.
